# Assay results published in ChEMBL document CHEMBL1127336, “P1 aspartate-based peptide alpha-((2,6-dichlorobenzoyl)oxy)methyl ketones as potent time-dependent inhibitors of interleukin-1 beta-converting enzyme” (J Med Chem, 1994).
# Assays:
# Cathepsin B (Bos taurus) = Cathepsin B (Bos taurus) (UniProt P07688); experiment: Compound was evaluated for the ability to inhibit cathepsin B purified from bovine spleen
# Caspase-1 (Homo sapiens) [1] = biological target: T1, Caspase-1 (Homo sapiens) (UniProt P29466); experiment: Compound was evaluated for the ability to inhibit Interleukin-1-beta-converting enzyme (ICE) purified from THP-1 cells
# T1 sequence (whole entry): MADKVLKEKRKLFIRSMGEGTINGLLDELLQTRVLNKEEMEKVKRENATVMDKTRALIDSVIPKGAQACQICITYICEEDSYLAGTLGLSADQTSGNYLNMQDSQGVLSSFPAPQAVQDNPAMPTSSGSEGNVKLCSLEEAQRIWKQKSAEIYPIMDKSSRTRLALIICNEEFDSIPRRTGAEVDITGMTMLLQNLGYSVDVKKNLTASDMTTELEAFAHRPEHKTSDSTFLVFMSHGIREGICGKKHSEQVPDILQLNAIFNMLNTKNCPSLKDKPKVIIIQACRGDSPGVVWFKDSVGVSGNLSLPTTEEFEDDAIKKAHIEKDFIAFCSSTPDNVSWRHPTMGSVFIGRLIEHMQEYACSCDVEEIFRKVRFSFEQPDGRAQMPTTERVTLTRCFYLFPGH
# [2] = Selectivity (ICE:cathepsin) of the compound; 108:1
# [3] = Selectivity (ICE:cathepsin) of the compound; 700:1
# Caspase-1 (Homo sapiens) [4] = biological target: T1, Caspase-1 (Homo sapiens); experiment: Compound was evaluated for the ability to inhibit Interleukin-1-beta-converting enzyme (ICE) purified from THP-1 cells; […]
k obs / 1 (Cathepsin B (Bos taurus)) [M⁻¹ s⁻¹],k obs / 1 (Caspase-1 (Homo sapiens) [1]) [M⁻¹ s⁻¹],Selectivity [2],Selectivity [3],k obs / 1 (Caspase-1 (Homo sapiens) [4]),Compound
380,41000,108,–,–,CC(C)C(NC(=O)OCc1ccccc1)C(=O)N[C@@H](CC(=O)O)C(=O)COC(=O)c1c(Cl)cccc1Cl (some centres not stated)
2250,–,–,–,–,CC(C)[C@H](NC(=O)OCc1ccccc1)C(=O)N[C@@H](C)C(=O)N[C@@H](CC(=O)O)C(=O)COC(=O)c1c(Cl)cccc1Cl
< 10,–,–,> 700,–,O=C(O)C[C@H](NC(=O)OCc1ccccc1)C(=O)COC(=O)c1c(Cl)cccc1Cl
–,–,–,–,No inhibition,O=C(O)CC[C@H](NC(=O)OCc1ccccc1)C(=O)COC(=O)c1c(Cl)cccc1Cl
